# Measurements: the kinase profiling compilation of Christmann-Franck et al. (2016)
# “And” between values parts separate entries of the source, which are not always exact repeats. Identical values can stand only once.
# Legend:
# Test in all cases: radiometric filter-binding kinase assay, Kinase HotSpot
# Conditions in all cases: compound 0.5 µM; ATP 10 µM
# INSRR (human) = INSRR (human) (UniProt P14616)
# CAMK1G (human) = CAMK1G (human) (UniProt Q96NX5)
# ADRBK2 (human) = ADRBK2 (human) (UniProt P35626)
# TTK (human) = TTK (human) (UniProt P33981)
# CSK (human) = CSK (human) (UniProt P41240)
# MARK2 (human) = MARK2 (human) (UniProt Q7KZI7)
# GRK7 (human) = GRK7 (human) (UniProt Q8WTQ7)
# NEK7 (human) = NEK7 (human) (UniProt Q8TDX7)
# Chain of NEK7 (human) (Q8TDX7 whole entry, looked up): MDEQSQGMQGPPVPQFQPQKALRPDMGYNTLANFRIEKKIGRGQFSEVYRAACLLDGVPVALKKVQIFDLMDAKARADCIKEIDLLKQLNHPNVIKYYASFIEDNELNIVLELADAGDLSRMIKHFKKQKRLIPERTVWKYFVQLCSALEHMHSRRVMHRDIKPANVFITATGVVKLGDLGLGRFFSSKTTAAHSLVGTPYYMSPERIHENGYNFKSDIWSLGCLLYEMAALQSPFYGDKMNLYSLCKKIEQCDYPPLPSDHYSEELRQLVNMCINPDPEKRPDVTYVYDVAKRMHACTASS
# CDK3 CCNE1 (human) = CDK3 CCNE1 (human) (UniProt Q00526+P24864)
# Chain of CDK3 CCNE1 (human) (P24864 whole entry, looked up): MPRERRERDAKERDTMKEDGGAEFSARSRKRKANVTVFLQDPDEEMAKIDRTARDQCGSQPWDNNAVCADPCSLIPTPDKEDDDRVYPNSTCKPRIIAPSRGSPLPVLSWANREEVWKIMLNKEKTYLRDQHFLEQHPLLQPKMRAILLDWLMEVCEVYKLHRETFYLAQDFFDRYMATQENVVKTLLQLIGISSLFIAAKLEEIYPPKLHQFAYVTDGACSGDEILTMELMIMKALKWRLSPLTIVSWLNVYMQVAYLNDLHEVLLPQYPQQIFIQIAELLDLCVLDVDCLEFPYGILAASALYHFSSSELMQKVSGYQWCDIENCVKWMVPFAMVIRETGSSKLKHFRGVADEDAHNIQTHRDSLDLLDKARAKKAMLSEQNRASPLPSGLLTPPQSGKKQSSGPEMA
# Chain of CDK3 CCNE1 (human) (Q00526 whole entry, looked up): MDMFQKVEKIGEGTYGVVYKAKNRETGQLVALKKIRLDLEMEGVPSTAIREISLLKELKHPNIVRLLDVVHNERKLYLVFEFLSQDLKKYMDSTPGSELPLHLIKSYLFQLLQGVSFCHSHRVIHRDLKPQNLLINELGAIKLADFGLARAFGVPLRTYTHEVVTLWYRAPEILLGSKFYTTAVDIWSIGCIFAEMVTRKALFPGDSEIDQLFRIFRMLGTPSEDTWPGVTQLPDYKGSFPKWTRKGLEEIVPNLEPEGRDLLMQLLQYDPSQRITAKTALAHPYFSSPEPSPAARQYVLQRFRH
# CAMKK2 (human) = CAMKK2 (human) (UniProt Q96RR4)
# FES (human) = FES (human) (UniProt P07332)
# CDK5 CDK5R1 p25 (human) = CDK5 CDK5R1 p25 (human) (UniProt Q00535+Q15078)
# SRC (human) = SRC (human) (UniProt P12931)
# EPHA7 (human) = EPHA7 (human) (UniProt Q15375)
# EPHB1 (human) = EPHB1 (human) (UniProt P54762)
# TEC (human) = TEC (human) (UniProt P42680)
# PRKCG (human) = PRKCG (human) (UniProt P05129)
# MKNK2 (human) = MKNK2 (human) (UniProt Q9HBH9)
# FYN (human) = FYN (human) (UniProt P06241)
# FGFR1 (human) = FGFR1 (human) (UniProt P11362)
# BRSK2 (human) = BRSK2 (human) (UniProt Q8IWQ3)
# ITK (human) = ITK (human) (UniProt Q08881)
# Chain of ITK (human) (Q08881 whole entry, looked up): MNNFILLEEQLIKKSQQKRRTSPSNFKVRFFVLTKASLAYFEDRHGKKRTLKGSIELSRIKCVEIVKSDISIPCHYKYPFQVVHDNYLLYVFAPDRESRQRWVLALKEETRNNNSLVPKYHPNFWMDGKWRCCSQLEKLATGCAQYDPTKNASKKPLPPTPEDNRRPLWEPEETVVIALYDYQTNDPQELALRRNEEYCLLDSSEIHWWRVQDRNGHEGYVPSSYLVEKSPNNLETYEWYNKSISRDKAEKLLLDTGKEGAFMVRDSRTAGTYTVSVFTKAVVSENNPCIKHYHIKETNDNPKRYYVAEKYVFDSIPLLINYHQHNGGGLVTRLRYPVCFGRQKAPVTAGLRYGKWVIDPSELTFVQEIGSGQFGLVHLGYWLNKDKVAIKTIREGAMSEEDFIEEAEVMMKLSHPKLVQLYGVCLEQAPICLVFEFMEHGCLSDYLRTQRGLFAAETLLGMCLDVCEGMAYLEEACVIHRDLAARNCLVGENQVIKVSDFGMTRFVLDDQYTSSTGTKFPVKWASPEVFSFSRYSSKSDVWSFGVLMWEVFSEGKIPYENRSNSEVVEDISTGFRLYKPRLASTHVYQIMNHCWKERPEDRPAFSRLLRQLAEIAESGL
# TXK (human) = TXK (human) (UniProt P42681)
# RPS6KA3 KD1 KD2 (human) = RPS6KA3 KD1 KD2 (human) (UniProt P51812)
# RPS6KA6 KD1 KD2 (human) = RPS6KA6 KD1 KD2 (human) (UniProt Q9UK32)
# Chain of RPS6KA6 KD1 KD2 (human) (Q9UK32 whole entry, looked up): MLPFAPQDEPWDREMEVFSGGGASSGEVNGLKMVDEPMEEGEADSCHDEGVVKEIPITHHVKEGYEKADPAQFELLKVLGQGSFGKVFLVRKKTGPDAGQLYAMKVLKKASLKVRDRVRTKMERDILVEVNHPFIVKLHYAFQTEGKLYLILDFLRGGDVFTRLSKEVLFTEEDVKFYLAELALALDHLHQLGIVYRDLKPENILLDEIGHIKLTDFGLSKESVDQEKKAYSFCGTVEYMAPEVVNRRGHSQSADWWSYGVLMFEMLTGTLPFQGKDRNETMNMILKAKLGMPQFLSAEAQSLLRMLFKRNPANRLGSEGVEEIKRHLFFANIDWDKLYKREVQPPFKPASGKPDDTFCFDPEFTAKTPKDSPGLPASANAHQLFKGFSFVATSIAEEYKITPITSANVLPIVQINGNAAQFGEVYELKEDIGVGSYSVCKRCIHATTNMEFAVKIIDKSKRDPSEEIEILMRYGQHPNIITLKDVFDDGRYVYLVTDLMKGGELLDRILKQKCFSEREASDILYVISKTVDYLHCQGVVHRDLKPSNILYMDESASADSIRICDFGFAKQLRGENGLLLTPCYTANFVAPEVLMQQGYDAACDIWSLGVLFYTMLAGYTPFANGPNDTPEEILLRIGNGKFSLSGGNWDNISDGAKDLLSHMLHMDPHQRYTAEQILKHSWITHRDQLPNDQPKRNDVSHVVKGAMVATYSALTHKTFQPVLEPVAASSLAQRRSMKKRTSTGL
# MAPK9 (human) = MAPK9 (human) (UniProt P45984)
# CDC42BPA (human) = CDC42BPA (human) (UniProt Q5VT25)
# MAPK1 (human) = MAPK1 (human) (UniProt P28482)
# PAK1 (human) = PAK1 (human) (UniProt Q13153)
# NEK1 (human) = NEK1 (human) (UniProt Q96PY6)
# SGK3 (human) = SGK3 (human) (UniProt Q96BR1)
# Chain of SGK3 (human) (Q96BR1 whole entry, looked up): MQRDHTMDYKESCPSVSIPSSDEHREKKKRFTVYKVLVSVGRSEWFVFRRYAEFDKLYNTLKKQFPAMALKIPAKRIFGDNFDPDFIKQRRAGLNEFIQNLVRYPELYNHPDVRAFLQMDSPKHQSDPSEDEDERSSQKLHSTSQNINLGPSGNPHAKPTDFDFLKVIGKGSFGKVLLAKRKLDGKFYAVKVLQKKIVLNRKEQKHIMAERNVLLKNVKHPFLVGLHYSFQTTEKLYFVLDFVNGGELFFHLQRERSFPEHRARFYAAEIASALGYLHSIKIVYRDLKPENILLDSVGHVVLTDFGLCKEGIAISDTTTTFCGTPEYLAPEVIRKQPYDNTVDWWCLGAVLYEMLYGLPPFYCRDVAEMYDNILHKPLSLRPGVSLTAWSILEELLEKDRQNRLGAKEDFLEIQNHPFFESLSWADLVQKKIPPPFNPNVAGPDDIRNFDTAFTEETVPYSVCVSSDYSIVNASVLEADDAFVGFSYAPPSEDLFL
# FGFR4 (human) = FGFR4 (human) (UniProt P22455)
# Chain of FGFR4 (human) (P22455 whole entry, looked up): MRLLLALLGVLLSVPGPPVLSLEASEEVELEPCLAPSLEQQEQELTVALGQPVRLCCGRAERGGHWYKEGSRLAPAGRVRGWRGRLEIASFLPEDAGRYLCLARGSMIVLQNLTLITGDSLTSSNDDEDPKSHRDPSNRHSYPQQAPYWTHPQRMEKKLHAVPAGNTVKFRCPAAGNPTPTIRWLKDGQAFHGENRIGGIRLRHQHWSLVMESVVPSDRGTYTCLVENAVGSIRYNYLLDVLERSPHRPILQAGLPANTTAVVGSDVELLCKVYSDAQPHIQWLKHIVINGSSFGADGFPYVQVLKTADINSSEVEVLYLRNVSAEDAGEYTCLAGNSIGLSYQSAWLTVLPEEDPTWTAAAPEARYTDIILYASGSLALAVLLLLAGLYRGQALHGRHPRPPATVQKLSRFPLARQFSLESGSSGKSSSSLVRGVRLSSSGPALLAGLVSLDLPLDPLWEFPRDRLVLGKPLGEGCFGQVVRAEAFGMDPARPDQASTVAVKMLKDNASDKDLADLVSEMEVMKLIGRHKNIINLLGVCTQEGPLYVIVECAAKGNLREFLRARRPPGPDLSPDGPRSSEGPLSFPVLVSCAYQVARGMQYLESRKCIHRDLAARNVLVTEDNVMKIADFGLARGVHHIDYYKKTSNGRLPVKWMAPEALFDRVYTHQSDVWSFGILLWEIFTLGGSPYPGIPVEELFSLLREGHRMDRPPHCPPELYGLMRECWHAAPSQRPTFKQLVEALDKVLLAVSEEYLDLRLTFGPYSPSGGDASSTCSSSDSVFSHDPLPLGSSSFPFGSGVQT
# STK11 (human) = STK11 (human) (UniProt Q15831)
# JAK2 JH1 JH2 (human) = JAK2 JH1 JH2 (human) (UniProt O60674)
# DSTYK (human) = DSTYK (human) (UniProt Q6XUX3)
# PRKD3 (human) = PRKD3 (human) (UniProt O94806)
# LYN (human) = LYN (human) (UniProt P07948)
# DDR2 (human) = DDR2 (human) (UniProt Q16832)
# PASK (human) = PASK (human) (UniProt Q96RG2)
# Chain of PASK (human) (Q96RG2 whole entry, looked up): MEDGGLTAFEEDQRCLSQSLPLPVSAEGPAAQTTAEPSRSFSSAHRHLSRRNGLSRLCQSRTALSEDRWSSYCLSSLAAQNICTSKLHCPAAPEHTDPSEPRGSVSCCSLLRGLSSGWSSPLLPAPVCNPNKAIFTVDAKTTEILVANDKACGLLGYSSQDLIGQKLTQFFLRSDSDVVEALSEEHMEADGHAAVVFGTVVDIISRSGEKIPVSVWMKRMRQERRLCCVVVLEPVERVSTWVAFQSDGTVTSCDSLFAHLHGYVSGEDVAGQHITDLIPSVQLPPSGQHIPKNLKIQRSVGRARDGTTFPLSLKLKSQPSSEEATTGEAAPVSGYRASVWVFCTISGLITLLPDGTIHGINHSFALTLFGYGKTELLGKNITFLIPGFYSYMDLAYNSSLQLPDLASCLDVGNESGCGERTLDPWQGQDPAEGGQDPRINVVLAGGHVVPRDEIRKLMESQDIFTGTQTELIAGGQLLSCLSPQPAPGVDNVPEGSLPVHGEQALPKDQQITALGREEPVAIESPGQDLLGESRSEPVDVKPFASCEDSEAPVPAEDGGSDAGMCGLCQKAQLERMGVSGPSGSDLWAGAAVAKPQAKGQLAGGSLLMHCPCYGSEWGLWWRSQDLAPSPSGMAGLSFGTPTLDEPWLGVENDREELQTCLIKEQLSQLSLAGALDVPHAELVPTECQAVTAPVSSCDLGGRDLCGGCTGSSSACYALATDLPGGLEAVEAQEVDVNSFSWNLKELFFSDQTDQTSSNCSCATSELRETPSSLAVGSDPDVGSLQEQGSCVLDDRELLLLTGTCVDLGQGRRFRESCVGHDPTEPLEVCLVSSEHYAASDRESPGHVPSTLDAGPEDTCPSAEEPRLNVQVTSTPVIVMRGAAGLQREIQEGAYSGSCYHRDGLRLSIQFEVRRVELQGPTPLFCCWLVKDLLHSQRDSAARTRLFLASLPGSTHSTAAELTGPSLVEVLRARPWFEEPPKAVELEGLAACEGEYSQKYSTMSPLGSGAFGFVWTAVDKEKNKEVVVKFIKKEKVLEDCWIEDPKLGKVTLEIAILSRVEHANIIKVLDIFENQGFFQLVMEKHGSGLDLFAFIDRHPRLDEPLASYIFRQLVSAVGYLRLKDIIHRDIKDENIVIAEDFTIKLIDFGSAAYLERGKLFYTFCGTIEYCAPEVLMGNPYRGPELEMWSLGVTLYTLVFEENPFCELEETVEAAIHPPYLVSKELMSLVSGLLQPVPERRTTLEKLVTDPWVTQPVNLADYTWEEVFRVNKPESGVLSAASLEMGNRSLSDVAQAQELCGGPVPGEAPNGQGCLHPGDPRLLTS
# PLK3 (human) = PLK3 (human) (UniProt Q9H4B4)
# AKT3 (human) = AKT3 (human) (UniProt Q9Y243)
# ALK (human) = ALK (human) (UniProt Q9UM73)
smiles,measurement,setting,value
CCCNC(=O)Nc1ccc(Oc2ncnc3cc(OC)c(OC)cc23)cc1Cl,residual activity,INSRR (human),98.4%
same,residual activity,CAMK1G (human),103%
same,residual activity,ADRBK2 (human),96.6%
same,residual activity,TTK (human),88.6%
same,residual activity,CSK (human),100%
same,residual activity,MARK2 (human),96.2%
same,residual activity,GRK7 (human),94.7%
same,residual activity,NEK7 (human),103%
same,residual activity,CDK3 CCNE1 (human),94%
same,residual activity,CAMKK2 (human),91.5%
same,residual activity,FES (human),96%
same,residual activity,CDK5 CDK5R1 p25 (human),95.7%
same,residual activity,SRC (human),98.6%
same,residual activity,EPHA7 (human),86.3%
same,residual activity,EPHB1 (human),95.5%
same,residual activity,TEC (human),119%
same,residual activity,PRKCG (human),120%
same,residual activity,MKNK2 (human),81.3%
same,residual activity,FYN (human),92.7%
same,residual activity,FGFR1 (human),75.4%
same,residual activity,BRSK2 (human),96.7%
same,residual activity,ITK (human),96.9%
same,residual activity,TXK (human),101%
same,residual activity,RPS6KA3 KD1 KD2 (human),94.9%
same,residual activity,RPS6KA6 KD1 KD2 (human),102%
same,residual activity,MAPK9 (human),104%
same,residual activity,CDC42BPA (human),77.8%
same,residual activity,MAPK1 (human),101%
same,residual activity,PAK1 (human),93.8%
same,residual activity,NEK1 (human),91.8%
same,residual activity,SGK3 (human),95.5%
same,residual activity,FGFR4 (human),73.9%
same,residual activity,STK11 (human),87.3%
same,residual activity,JAK2 JH1 JH2 (human),96.9%
same,residual activity,DSTYK (human),88.6%
same,residual activity,PRKD3 (human),93.4%
same,residual activity,LYN (human),75.5% and 94.1%
same,residual activity,DDR2 (human),67.6%
same,residual activity,PASK (human),87.7%
same,residual activity,PLK3 (human),95%
same,residual activity,AKT3 (human),88.9%
C#Cc1cccc(Nc2ncnc3cc(OCCOC)c(OCCOC)cc23)c1,residual activity,INSRR (human),111%
same,residual activity,CAMK1G (human),111%
same,residual activity,ADRBK2 (human),94.8%
same,residual activity,TTK (human),91.8%
same,residual activity,CSK (human),100%
same,residual activity,MARK2 (human),129%
same,residual activity,GRK7 (human),98.3%
same,residual activity,NEK7 (human),97.4%
same,residual activity,CDK3 CCNE1 (human),95.6%
same,residual activity,CAMKK2 (human),97.1%
same,residual activity,FES (human),105%
same,residual activity,CDK5 CDK5R1 p25 (human),90.5%
same,residual activity,SRC (human),77.4%
same,residual activity,EPHA7 (human),69.8%
same,residual activity,EPHB1 (human),100%
same,residual activity,TEC (human),96.2%
same,residual activity,PRKCG (human),84.1%
same,residual activity,FYN (human),94.7%
same,residual activity,FGFR1 (human),99.1%
same,residual activity,BRSK2 (human),100%
same,residual activity,ITK (human),106%
same,residual activity,RPS6KA3 KD1 KD2 (human),100%
same,residual activity,RPS6KA6 KD1 KD2 (human),99.1%
same,residual activity,CDC42BPA (human),88.5%
same,residual activity,MAPK1 (human),116%
same,residual activity,PAK1 (human),109%
same,residual activity,NEK1 (human),73.8%
same,residual activity,SGK3 (human),100%
same,residual activity,FGFR4 (human),93.3%
same,residual activity,DSTYK (human),107%
same,residual activity,PRKD3 (human),86.5%
same,residual activity,LYN (human),72.5% and 75.4%
same,residual activity,PASK (human),97.4%
same,residual activity,PLK3 (human),102%
same,residual activity,AKT3 (human),74.6%
O=C1Cc2c([nH]c3ccc([N+](=O)[O-])cc23)-c2ccccc2N1,residual activity,INSRR (human),94.5%
same,residual activity,CAMK1G (human),96%
same,residual activity,ADRBK2 (human),88.9%
same,residual activity,TTK (human),87.4%
same,residual activity,CSK (human),96.6%
same,residual activity,MARK2 (human),52.4%
same,residual activity,GRK7 (human),99%
same,residual activity,NEK7 (human),89.7%
same,residual activity,CDK3 CCNE1 (human),56.8%
same,residual activity,CAMKK2 (human),79.5%
same,residual activity,FES (human),46.3%
same,residual activity,CDK5 CDK5R1 p25 (human),10.5%
same,residual activity,SRC (human),39.7%
same,residual activity,EPHA7 (human),95%
same,residual activity,EPHB1 (human),112%
same,residual activity,TEC (human),137%
same,residual activity,PRKCG (human),92.5%
same,residual activity,MKNK2 (human),92.9%
same,residual activity,FYN (human),53.1%
same,residual activity,FGFR1 (human),88.6%
same,residual activity,BRSK2 (human),34.5%
same,residual activity,ITK (human),97.1%
same,residual activity,TXK (human),87.3%
same,residual activity,RPS6KA3 KD1 KD2 (human),70.6%
same,residual activity,RPS6KA6 KD1 KD2 (human),38%
same,residual activity,MAPK9 (human),97.2%
same,residual activity,CDC42BPA (human),96.2%
same,residual activity,MAPK1 (human),106%
same,residual activity,PAK1 (human),36.7%
same,residual activity,NEK1 (human),105%
same,residual activity,SGK3 (human),102%
same,residual activity,FGFR4 (human),90.6%
same,residual activity,STK11 (human),90.2%
same,residual activity,JAK2 JH1 JH2 (human),103%
same,residual activity,DSTYK (human),90%
same,residual activity,PRKD3 (human),88.2%
same,residual activity,DDR2 (human),103%
same,residual activity,PASK (human),86.9%
same,residual activity,ALK (human),94.2%
same,residual activity,PLK3 (human),98.8%
same,residual activity,AKT3 (human),94.1%
